Reference: publication PMC8699473, “An Easily Expandable Multi-Drug LC-MS Assay for the Simultaneous Quantification of 57 Oral Antitumor Drugs in Human Plasma” (Cancers, 2021)

Test: Short-term stability in spiked pooled human plasma (bench-top, 4 °C, 56 °C)
Conditions: for light sensitivity: acceptance limit <85%

SMILES | Short-time stability (1h, 56°C) Accuracy [%] (validation standard 2xLLOV) | Short-time stability (24h, 4°C, without daylight) Accuracy [%] (validation standard 2xLLOV) | Short-time stability (24h, RT, with daylight) Accuracy [%] (validation standard 2xLLOV) | Short-time stability (24h, RT, without daylight) Accuracy [%] (validation standard 2xLLOV) | Short-time stability (1h, 56°C) Accuracy [%] (validation standard LLOV) | Short-time stability (24h, 4°C, without daylight) Accuracy [%] (validation standard LLOV) | Short-time stability (24h, RT, with daylight) Accuracy [%] (validation standard LLOV) | Short-time stability (24h, RT, without daylight) Accuracy [%] (validation standard LLOV) | Short-time stability (1h, 56°C) Accuracy [%] (validation standard MOV) | Short-time stability (24h, 4°C, without daylight) Accuracy [%] (validation standard MOV) | Short-time stability (24h, RT, with daylight) Accuracy [%] (validation standard MOV) | Short-time stability (24h, RT, without daylight) Accuracy [%] (validation standard MOV) | Short-time stability (1h, 56°C) Accuracy [%] (validation standard ULOV) | Short-time stability (24h, 4°C, without daylight) Accuracy [%] (validation standard ULOV) | Short-time stability (24h, RT, with daylight) Accuracy [%] (validation standard ULOV) | Short-time stability (24h, RT, without daylight) Accuracy [%] (validation standard ULOV) | concentrations in short-term stability investigations (24 h, room temperature, with or without light) | light sensitivity
CCN1CCN(Cc2ccc(Nc3ncc(F)c(-c4cc(F)c5nc(C)n(C(C)C)c5c4)n3)nc2)CC1 [Abemaciclib] | 27.9 | 102.9 | 88.7 | 87.4 | 27.4 | 93.7 | 90.1 | 88.2 | 34.3 | 104.5 | 90.3 | 91.7 | 34.9 | 94.4 | 88.4 | 87.5 | – | –
C[C@]12CC[C@H](O)CC1=CC[C@@H]1[C@@H]2CC[C@]2(C)C(c3cccnc3)=CC[C@@H]12 [Abiraterone] | 46.5 | 96.9 | 101.7 | 101.5 | 49.9 | 104.6 | 105.6 | 105.2 | 40.7 | 97.4 | 103.1 | 101.1 | 34.9 | 95.4 | 103.3 | 102.0 | – | –
CN(C)C/C=C/C(=O)Nc1cc2c(Nc3ccc(F)c(Cl)c3)ncnc2cc1O[C@H]1CCOC1 [Afatinib] | 30.4 | 85.5 | 80.8 | 92.5 | 7.2 | 85.9 | 64.3 | 69.9 | 36.2 | 97.9 | 89.4 | 91.4 | 33.2 | 92.8 | 77.8 | 82.7 | 64.3–92.5% | –
O=C1CN2Cc3c(ccc(Cl)c3Cl)N=C2N1 [Anagrelide] | 66.3 | 104.2 | 84.8 | 84.4 | 55.6 | 90.4 | 78.3 | 67.4 | 52.9 | 96.9 | 96.0 | 88.7 | 46.2 | 93.5 | 98.5 | 94.1 | – | –
CNC(=O)c1ccc(N2C(=S)N(c3cnc(C#N)c(C(F)(F)F)c3)C(=O)C23CCC3)cc1F [Apalutamide] | 46.5 | 93.0 | 76.8 | 80.8 | 37.6 | 96.9 | 72.0 | 75.7 | 41.2 | 84.3 | 75.7 | 75.2 | 29.0 | 84.2 | 63.9 | 63.8 | – | –
CNC(=O)c1ccccc1Sc1ccc2c(/C=C/c3ccccn3)n[nH]c2c1 [Axitinib] | 67.7 | 103.6 | 107.5 | 86.7 | 71.1 | 129.6 | 108.7 | 106.1 | 54.6 | 100.6 | 116.9 | 99.3 | 46.2 | 97.2 | 123.3 | 101.6 | – | no losses of concentrations below the acceptance limit
Cn1cnc2c(F)c(Nc3ccc(Br)cc3F)c(C(=O)NOCCO)cc21 [Binimetinib] | 55.9 | 105.5 | 89.3 | 86.4 | 68.1 | 117.1 | 111.6 | 106.0 | 42.6 | 94.8 | 86.5 | 89.2 | 36.7 | 96.8 | 101.8 | 97.3 | – | –
COc1cc(N2CCC(N3CCN(C)CC3)CC2)ccc1Nc1ncc(Cl)c(Nc2ccccc2P(C)(C)=O)n1 [Brigatinib] | 18.2 | 102.8 | 76.4 | 74.1 | 7.8 | 95.0 | 55.6 | 55.1 | 38.5 | 104.2 | 85.3 | 93.4 | 35.7 | 93.7 | 91.3 | 90.3 | – | –
Cc1cc(Nc2ncc(Cl)c(Nc3ccccc3S(=O)(=O)C(C)C)n2)c(OC(C)C)cc1C1CCNCC1 [Ceritinib] | 39.7 | 95.5 | 66.9 | 72.2 | 42.5 | 102.1 | 70.9 | 77.7 | 34.6 | 93.9 | 84.1 | 92.2 | 32.0 | 92.7 | 91.8 | 96.2 | – | –
O=C(c1ccc(F)c(F)c1Nc1ccc(I)cc1F)N1CC(O)([C@@H]2CCCCN2)C1 [Cobimetinib] | 51.4 | 100.9 | 98.3 | 98.8 | 42.7 | 99.9 | 98.6 | 99.8 | 47.6 | 102.5 | 102.4 | 103.8 | 41.3 | 97.5 | 103.8 | 100.3 | – | –
C[C@@H](Oc1cc(-c2cnn(C3CCNCC3)c2)cnc1N)c1c(Cl)ccc(F)c1Cl [Crizotinib] | – | – | 85.9 | 92.4 | – | – | 62.9 | 71.2 | – | – | 95.3 | 99.8 | – | – | 85.2 | 89.5 | – | –
CC(C)(C)c1nc(-c2cccc(NS(=O)(=O)c3c(F)cccc3F)c2F)c(-c2ccnc(N)n2)s1 [Dabrafenib] | 46.2 | 99.6 | 98.0 | 107.6 | 42.8 | 112.7 | 97.0 | 108.2 | 42.4 | 100.0 | 97.7 | 99.3 | 35.6 | 94.0 | 100.2 | 99.7 | – | no losses of concentrations below the acceptance limit
COC(=O)N[C@@H](C)CNc1nccc(-c2cn(C(C)C)nc2-c2cc(Cl)cc(NS(C)(=O)=O)c2F)n1 [Encorafenib] | 54.9 | 106.5 | 109.5 | 112.9 | – | 110.1 | 108.1 | 104.0 | 54.0 | 102.1 | 105.9 | 109.8 | 44.5 | 98.5 | 108.8 | 108.3 | – | –
